The source made the active and inactive calls. The calls are words filed in the database; no cut-off is given here.

Drawing on ChEMBL document CHEMBL1141398, “Metastin (KiSS-1) mimetics identified from peptide structure-activity relationship-derived pharmacophores and directed small molecule database screening” (J Med Chem, 2007), this text covers Activity for 1 compound.

For the assay, the target named is KiSS-1 receptor (Homo sapiens, UniProt Q969F8). As to the kind of experiment: Activity at metastin receptor expressed in HEK293 cells by measuring calcium release at 100 uM. The class given is functional, cell-based.
Sequence of KiSS-1 receptor (Q969F8 whole entry): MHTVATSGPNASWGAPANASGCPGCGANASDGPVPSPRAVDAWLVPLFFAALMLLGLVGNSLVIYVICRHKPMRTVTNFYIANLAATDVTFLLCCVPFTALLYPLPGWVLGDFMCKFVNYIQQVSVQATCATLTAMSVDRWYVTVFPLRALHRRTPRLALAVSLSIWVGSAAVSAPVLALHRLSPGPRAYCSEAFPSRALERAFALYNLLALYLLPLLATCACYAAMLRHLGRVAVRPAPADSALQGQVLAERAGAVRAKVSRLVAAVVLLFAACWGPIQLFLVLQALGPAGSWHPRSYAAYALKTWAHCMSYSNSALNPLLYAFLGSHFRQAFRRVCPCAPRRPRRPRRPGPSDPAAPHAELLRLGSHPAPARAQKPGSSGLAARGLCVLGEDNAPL

Turning to `CC(C)(C)CC(C)(C)c1ccc(OCCOCC[N+](C)(C)Cc2ccccc2)cc1` [BENZETHONIUM CHLORIDE], the outcome was Active.
